In one assay the test system is PfSPP. In words: RBC-binding assay in suspension with native PfSPP from culture supernatant. The following applies: soluble protein 40 μM, quantified by densitometry of immunoblot. On the set-up: species or system P. falciparum. The method, then: To carry out a RBC-binding assay in solution using native PfSPP, a spent culture supernatant of P. falciparum containing native PfSPP was prepared as follows. Trophozoites enriched from a 5% sorbitol-synchronized P. falciparum culture were allowed to mature for 16 h to form schizonts and merozoites. The parasites were left in the culture flask to lyse and the proteins were released into the culture supernatant. Aliquots of the culture were centrifuged at either 12,000 g for 20 min or 40,000 g for 15 min at 4° C. The culture supernatant and pellet were analyzed by immunoblot analysis using anti-PfSPP pAbs. The culture supernatant prepared at 12,000 g was stored at −80° C. in aliquots and used in subsequent RBC binding assays. In these assays, a 500 μl sample of P. falciparum culture supernatant was added to untreated, trypsin-treated, chymotrypsin-treated, or neuraminidase-treated intact human RBCs (50 μl packed volume) for 1 h at room temperature. The cells were centrifuged at 12,000 g for 30 s through a layer of silicone oil (500 μl). Proteins bound to RBCs were eluted by incubating the RBCs in 1.5 M NaCl (20 μl) for 30 min at room temperature. Salt-eluted proteins were analyzed by SDS-PAGE followed by immunoblotting using anti-PfSPP Abs. The pretreatment of intact RBCs with enzymes was carried out as described (Goel et al., 2003, Proc Natl Acad Sci USA 100:5164-5169). […]
Background: Immunoblotting shows a protein as a band on a membrane.

Assay [1] relates to P. falciparum merozoite invasion of human erythrocytes. Description: RBC invasion by synchronized schizonts with SPP inhibitors, new rings counted. The format is cell-based. The following applies: increasing concentrations, 20 h, versus DMSO. The source says: To investigate the role of PfSPP in parasite invasion, a chemical approach was adopted by employing three synthetic inhibitors of mammalian membrane aspartyl proteases. The inhibitor (Z-LL)2-ketone (Calbiochem/EMD Biosciences, Gibbstown, N.J.) is specific for mammalian SPP, whereas the L-685,458 and DAPT inhibitors (both were gift of Dr. S. Sisodia of the University of Chicago) are known to be specific for the γ-secretase/Presenilin-1 complex (FIG. 8A). […] Herein, human erythrocytes with highly synchronized P. falciparum schizonts were incubated in the presence of increasing concentrations of (Z-LL)2-ketone, L-685,458, and DAPT. After 20 h of incubation, the rings were counted from the inhibitor and DMSO treated samples.

For assay [2], the target named is T1, γ-secretase/Presenilin-1 complex (Homo sapiens, UniProt P49768).
T1 construct: host or cells: live mammalian cells
The following applies: (Z-LL)2-ketone up to 100 μM; cited from earlier work.

The test system of another assay is P. falciparum FCR3. In words: Parasite growth by [3H]-hypoxanthine incorporation. The following applies: FCR3 strain, mildly chloroquine-resistant. The format is cell-based. The method, then:
(§1) Since the primary structure of PfSPP is highly conserved, the effect of these inhibitors on the growth of other P. falciparum strains was also tested. The parasite strains tested included two chloroquine-resistant P. falciparum strains (7G8, Dd2), one chloroquine-sensitive strain (HB3), and one mildly chloroquine-resistant strain (FCR3). Parasite growth was evaluated in these four strains by measuring [^3H]-hypoxanthine incorporation starting at 24 h post-invasion. Both (Z-LL)2-ketone and L-685,458 inhibited parasite growth in all 4 parasite strains with the IC50 values similar to 3D7 strain, while DAPT had no effect on any strain (Table 2).

The next assay has as its system P. falciparum HB3. Description: Parasite growth by [3H]-hypoxanthine incorporation. The assay is classed as cell-based. To be noted: HB3 strain, chloroquine-sensitive. As for the experimental part: as §1
A further assay relates to P. falciparum 7G8. In words: Parasite growth by [3H]-hypoxanthine incorporation. The assay is classed as cell-based. The following applies: 7G8 strain, chloroquine-resistant. As for the experimental part:
as §1

The test system of another assay is P. falciparum Dd2. Description: Parasite growth by [3H]-hypoxanthine incorporation. The format is cell-based. To be noted: Dd2 strain, chloroquine-resistant. The method, then: as §1
The test system of a further assay is P. falciparum 3D7. In words: Parasite growth in human erythrocytes from synchronized ring stage. The assay is classed as cell-based. To be noted: for inhibition of parasite replication (in words): 10 μM, after one cycle of asexual multiplication; for effect on parasite growth in erythrocytes (in words): ring stage parasites, 0.2% DMSO. The source says:
FIG. 9B depicts a graph indicating inhibition of parasite growth as a result of (Z-LL)2-ketone (▪), L-685,458 (•), and DAPT (♦) treatment. […] FIG. 9C is a schematic diagraph showing disruption of the P. falciparum (3D7 strain) PfSPP gene. PfSPP5′ and PfSPP3′ represent 5′ translated region (616 bp) and 3′ translated region (711 bp) of the PfSPP gene, respectively. Dashed lines represent bacterial vector sequences. Bold lines represent untranslated regions of the target PfSPP gene.
The P. falciparum strain 3D7 (obtained from MR4) was maintained in continuous culture in a 5% suspension of fresh type O+ human erythrocytes in RPMI 1640 at 37° C. under 5% CO2, 5% O2, and 90% N2 by the method of Trager and Jensen (Trager et al., 1976, Science 193:673-5). Ring-stage parasites were synchronized by using 5% sorbitol treatment and late-stage parasites were enriched to >95% by centrifugation in 63% (v/v) Percoll as described (Goel et al., 2003, Proc Natl Acad Sci USA 100:5164-5169). The parasite protein extract was prepared by solubilizing an enriched fraction of mature parasites with an extraction buffer (50 mM Tris-HCl, pH 8.0, 150 mM NaCl, 5 mM EDTA, 5 mM EGTA, 0.5% Triton X-100, 0.5% BSA) supplemented with 2 μg/ml Aprotinin, 1 μg/ml of Leupeptin, Pepstatin A, Bestatin, 10 mM PMSF, and a cocktail of protease inhibitors (Roche, Indianapolis, Ind.). The mixture was kept on ice for 1 h and centrifuged at 12,000 g for 20 min at 4° C. The supernatant was stored at −80° C. in aliquots and used in the antibody characterization and binding assays.
The effects of the three inhibitors on malaria parasite growth in human erythrocytes were examined Synchronized ring stage parasites were incubated with inhibitors in the presence of 0.2% DMSO. […] The precipitous decline in parasitemia presumably originated from inhibition of late rings or early trophozoites, as pyknotic parasites were observed after 24-48 h of culture in the presence of (Z-LL)2-ketone and L-685,458 (FIG. 4). Destruction of the inhibitor-treated parasites was irreversible, as no progression to the second asexual cycle was observed. In contrast, DAPT had little or no effect on parasite growth as compared to the DMSO-treated control (FIG. 9A).

The test system of assay [3] is incomplete version of PfSPP lacking the 6 amino acids. The following applies: cited from earlier work.
A further assay deals with T2, SPP (Homo sapiens, UniProt Q8TCT9).
T2 sequence (Q8TCT9 1-377): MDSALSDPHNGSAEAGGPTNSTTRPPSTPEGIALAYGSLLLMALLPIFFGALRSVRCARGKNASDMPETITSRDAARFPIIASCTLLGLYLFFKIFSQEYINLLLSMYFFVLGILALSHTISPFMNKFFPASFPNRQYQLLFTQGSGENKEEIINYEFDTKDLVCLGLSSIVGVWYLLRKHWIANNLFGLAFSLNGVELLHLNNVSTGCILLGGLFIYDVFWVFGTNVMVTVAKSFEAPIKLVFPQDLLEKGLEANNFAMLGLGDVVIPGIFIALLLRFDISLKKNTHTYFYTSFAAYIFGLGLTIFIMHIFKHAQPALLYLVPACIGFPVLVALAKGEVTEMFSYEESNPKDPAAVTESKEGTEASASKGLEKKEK
The following applies: DAPT at 100 μM; cited from earlier work.

For assay [4], the target named is T3, GST-5ABC (GST fused to residues 720-761 of human erythrocyte band 3) (human, UniProt P02730 720-761).
T3 construct: also called soluble GST-5ABC; GST-5ABC conjugated to beads
T3 chain: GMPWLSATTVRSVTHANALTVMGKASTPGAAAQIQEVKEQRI
In words: bead pull-down (GST-5ABC on GSH beads), immunoblot with anti-PfSPP/ER pAbs.

[5] abbreviates: 3D7 strain, read-out: IC50 parasite growth.
Where [6] appears, read: FIG. 9B legend, read-out: IC50 for live parasites.

The source of these data is patent US20110171225A1, “Novel Plasmodium Falciparum Gene Encoding Signal Peptide Peptidase and Method of Using Inhibitors Thereof for Inhibiting Malarial Infection” (The Board of Trustees of the University of Illinois, priority 2008, published 2011).

One may read the IC50 as the concentration at which inhibition is half-maximal.

Entries after “also recorded” stand apart in the source; their conditions may differ. Where two headings read alike, the source gives them in different places. No end group written: not given here.

“GST-5ABC: GST fusion protein of 5ABC peptide, residues 720-761 of human band 3 (SEQ ID NO:7) (GMPWLSATTVRSVTHANALTVMGKASTPGAAAQIQEVKEQRI; also: GST fusion; UniProt P02730 720-761, looked up, fragment)”: the “decrease of binding of PfSPP to RBCs” value in the assay with PfSPP worked out at 94%.
On to `CC(C)C[C@H](NC(=O)OCc1ccccc1)C(=O)N[C@@H](CC(C)C)C(=O)NCC(=O)CNC(=O)[C@H](CC(C)C)NC(=O)[C@H](CC(C)C)NC(=O)OCc1ccccc1` [(Z-LL)2-ketone], for which the “effect on parasite/merozoite invasion (in words)” value in assay [1] is “efficiently inhibited; also recorded: significant decrease in the number of new rings”. In addition, in assay [2], the “inhibition of γ-secretase/Presenilin-1 activity (in words)” value is recorded as “does not inhibit”. Moreover, the half-maximal inhibitory concentration (IC50) with P. falciparum FCR3 is 1230 ± 40 nM; with P. falciparum HB3 it was 1060 ± 50 nM; in the assay with P. falciparum 7G8 it was 1120 ± 50 nM; in the assay with P. falciparum Dd2, 1080 ± 70 nM; in the assay on P. falciparum 3D7 (setting [5]), 985 nM; in the assay on P. falciparum 3D7 (setting [6]), 985 nM. Moreover, in the assay on P. falciparum 3D7, the “inhibition of parasite replication (in words)” value is “complete inhibition”. In addition, the “effect on parasite growth in erythrocytes (in words)” value (from here on “effect on parasite growth”) in the assay on P. falciparum 3D7 is given as “significant inhibition”. For the same molecule, in [3], the “inhibition of in vitro enzyme activity (in words)” value is given as “inhibited”.
On to `C[C@H](NC(=O)[C@@H](O)c1cc(F)cc(F)c1)C(=O)N[C@@H]1C(=O)N(C)c2ccccc2-c2ccccc21` [LY411,575], for which the “inhibition of in vitro enzyme activity (in words)” value in assay [3] was “inhibited”.
Turning to `CC(C)C[C@H](NC(=O)[C@H](Cc1ccccc1)C[C@@H](O)[C@H](Cc1ccccc1)NC(=O)OC(C)(C)C)C(=O)N[C@@H](Cc1ccccc1)C(N)=O` [L-685,458], in assay [1], the “effect on parasite/merozoite invasion (in words)” value is recorded as “efficiently inhibited; also recorded: significant decrease in the number of new rings”. The “inhibition of γ-secretase/Presenilin-1 activity (in words)” value in [2] is recorded as “inhibited”. Besides, the IC50 in the assay on P. falciparum FCR3 was found to be 230 ± 30 nM; with P. falciparum HB3 it was 190 ± 20 nM; in the assay with P. falciparum 7G8 it was 210 ± 40 nM; in the assay on P. falciparum Dd2 it was 180 ± 30 nM; in the assay with P. falciparum 3D7 (setting [5]), 174 nM; with P. falciparum 3D7 (setting [6]), 174 nM. Also, in the assay with P. falciparum 3D7, the “inhibition of parasite replication (in words)” value is listed as “complete inhibition”. Moreover, the “effect on parasite growth” value with P. falciparum 3D7 is reported as “significant inhibition”. Moreover, the “effect on SPP activity (in words)” value at SPP is “inhibited”.
`C[C@H](NC(=O)Cc1cc(F)cc(F)c1)C(=O)N[C@H](C(=O)OC(C)(C)C)c1ccccc1` [DAPT]: the “effect on parasite/merozoite invasion (in words)” value in [1] is recorded as “minimal effect; also recorded: no effect”. The IC50 in the assay with P. falciparum FCR3, in the assay with P. falciparum HB3, with P. falciparum 7G8 and in the assay with P. falciparum Dd2 was greater than 10000 nM in each case. The “effect on parasite growth” value with P. falciparum 3D7 is on record as “no effect”. The “effect on SPP activity (in words)” value on SPP is on record as “no effect”.

B1: native Plasmodium falciparum signal peptide peptidase (PfSPP) (enzyme)
chain: MNLLKLIGKNKKMKNENMGNSIFYYSCYVIIVLTIILSKFVVIPLMAQMFLYTFITIYIGSHDSLKQLEIDDKTKKSDNITAYDAMMFPVIGSAALLTLYFAYKFLDPFYVNLLLTLYLTLAGVFSLQGVFTTILEPVFPNFFKKDEYVKTFKLPNFIYKEPIVFNTNKGEIVCLILSFAIGLRWIFYKDFITHNVLAVSFCFQAISLVILSNFLIGFLLLSGLFVYDIFWVFGNDVMVTVAKSFEAPVKLLFPVSSDPVHYSMLGLGDIIIPGILMSLCLRFDYYLFKNNIHKGNLKKMFNDISIHESFKKYYFYTIIIFYELGLVVTYCMLFYFEHPQPALLYLVPACILAILACSICKREFKLMIKYQEITDKSNTVDDASKNKKKDKEEIPKIQETPVSNAKKRITNK
notes: also called native PfSPP; native P. falciparum PfSPP
Regarding B1, in assay [4], the binding result is recorded as “binds”.
